The results in this text go back to patent US10576062B2, “Carbamoyloxymethyl triazole cyclohexyl acids as LPA antagonists” (Bristol-Myers Squibb Company, priority 2016, dated 2020).

pIC50: −log10 of the molar value.

In the first assay the target is T1, human LPA1 (Homo sapiens, UniProt Q92633).
T1 construct: expressed in transfected cells; host or cells: Chinese hamster ovary (CHO) cells
T1 sequence (Q92633 whole entry): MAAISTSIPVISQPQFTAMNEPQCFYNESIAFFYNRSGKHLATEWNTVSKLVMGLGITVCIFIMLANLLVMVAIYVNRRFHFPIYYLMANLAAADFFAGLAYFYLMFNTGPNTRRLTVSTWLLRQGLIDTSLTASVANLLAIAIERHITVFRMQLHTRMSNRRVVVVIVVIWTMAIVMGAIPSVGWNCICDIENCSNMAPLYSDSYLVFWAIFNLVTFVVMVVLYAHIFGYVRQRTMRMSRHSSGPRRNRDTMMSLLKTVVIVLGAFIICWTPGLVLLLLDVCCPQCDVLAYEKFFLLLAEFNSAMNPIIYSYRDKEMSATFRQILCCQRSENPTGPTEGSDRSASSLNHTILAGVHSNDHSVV
In words: LPA1 functional antagonist assay (LPA-induced calcium flux). The format is cell-based. Particulars: CHO cells overexpressing human LPA1; inhibition of calcium flux induced by 10 nM LPA; read-out: hLPA1 IC50. As to the method:
The effectiveness of compounds of the present invention as LPA1 inhibitors can be determined in an LPA1 functional antagonist assay as follows: Chinese hamster ovary cells overexpressing human LPA1 were plated overnight (15,000 cells/well) in poly-D-lysine coated 384-well microplates (Greiner bio-one, Cat #781946) in DMEM/F12 medium (Gibco, Cat #11039). Following overnight culture, cells were loaded with calcium indicator dye (AAT Bioquest Inc, Cat #34601) for 30 minutes at 37° C. The cells were then equilibrated to room temperature for 30 minutes before the assay. Test compounds solubilized in DMSO were transferred to 384 well non-binding surface plates (Corning, Cat #3575) using the Labcyte Echo acoustic dispense and diluted with assay buffer [1×HBSS with calcium/magnesium (Gibco Cat #14025-092), 20 mM HEPES (Gibco Cat #15630-080) and 0.1% fatty acid free BSA (Sigma Cat #A9205)] to a final concentration of 0.5% DMSO. Diluted compounds were added to the cells by FDSS6000 (Hamamatsu) at final concentrations ranging from 0.08 nM to 5 μM. and were then incubated for 20 min at room temperature at which time LPA (Avanti Polar Lipids Cat #857130C) was added at final concentrations of 10 nM to stimulate the cells. […] IC50 values were determined by fitting data to a 4-parameter logistic equation (GraphPad Prism, San Diego Calif.).
For orientation: Calcium flux is commonly read through the fluorescence of an indicator in the cells.
In the case of `CC(OC(=O)N(C)CC1CCC1)c1c(-c2ccc(O[C@H]3CCC[C@H](C(=O)O)C3)cc2)nnn1C` (mixture of isomers) [Example 12, (1S,3S)-3-(4-(5-(1-(((cyclobutylmethyl)(methyl)carbamoyl)oxy)ethyl)-1-methyl-1H-1,2,3-triazol-4-yl)phenoxy)cyclohexane-1-carboxylic Acid], the pIC50 (in general, −log10 of the IC50, conventionally taken in molar units) was 6.42.

The same assay, now with this note: human LPA1; read-out: hLPA1 IC50.
Take `Cc1nc(-c2nnn(C)c2COC(=O)N2CCCC(C)C2)ccc1O[C@H]1CCC[C@H](C(=O)O)C1` (mixture of isomers) [Example 161, (1S,3S)-3-((2-methyl-6-(1-methyl-5-(((3-methylpiperidine-1-carbonyl)oxy)methyl)-1H-1,2,3-triazol-4-yl)pyridin-3-yl)oxy)cyclohexane-1-carboxylic acid]: the negative-log IC50 (pIC50) is 6.75.
Regarding `Cc1nc(-c2nnn(C)c2COC(=O)N2CCC(C(C)C)C2)ccc1O[C@H]1CCC[C@H](C(=O)O)C1` (mixture of isomers) [Example 163, (1S,3S)-3-((6-(5-(((3-isopropylpyrrolidine-1-carbonyl)oxy)methyl)-1-methyl-1H-1,2,3-triazol-4-yl)-2-methylpyridin-3-yl)oxy)cyclohexane-1-carboxylic acid], the negative logarithm of the IC50 (pIC50) was 6.98.
Same read-out and setting: next, `Cc1nc(-c2nnn(C)c2COC(=O)N2CCC(C3CC3)C2)ccc1O[C@H]1CCC[C@H](C(=O)O)C1` (mixture of isomers) [Example 164, (1S,3S)-3-((6-(5-(((3-cyclopropylpyrrolidine-1-carbonyl)oxy)methyl)-1-methyl-1H-1,2,3-triazol-4-yl)-2-methylpyridin-3-yl)oxy)cyclohexane-1-carboxylic acid]: 7.08.

The same assay, now with this note: read-out: hLPA1 IC50.
`Cc1nc(-c2nnn(C)c2COC(=O)N(C)C(C)C2CCC2)ccc1O[C@H]1CCC[C@H](C(=O)O)C1` (mixture of isomers) [Example 20, (1S,3S)-3-((6-(5-((((1-cyclobutylethyl)(methyl)carbamoyl)oxy)methyl)-1-methyl-1H-1,2,3-triazol-4-yl)-2-methylpyridin-3-yl)oxy)cyclohexane-1-carboxylic acid]: the negative logarithm of the IC50 (pIC50) is 7.55.
The same measure, in the same setting: the result for `CCCC(C)N(C)C(=O)OCc1c(-c2ccc(O[C@H]3CCC[C@H](C(=O)O)C3)cn2)nnn1C` (mixture of isomers) [Example 24, (1S,3S)-3-((6-(1-methyl-5-(((methyl(pentan-2-yl)carbamoyl)oxy)methyl)-1H-1,2,3-triazol-4-yl)pyridin-3-yl)oxy)cyclohexane-1-carboxylic acid] reads 7.33; that for `CCCC(C)N(C)C(=O)OCc1c(-c2ccc(O[C@H]3CCC[C@H](C(=O)O)C3)c(F)c2)nnn1C` (mixture of isomers) [Example 28, (1S,3S)-3-(2-fluoro-4-(1-methyl-5-(((methyl(pentan-2-yl)carbamoyl)oxy)methyl)-1H-1,2,3-triazol-4-yl)phenoxy)cyclohexane-1-carboxylic acid], 7.60.
Regarding `CCCC(C)N(C)C(=O)OCc1c(-c2ccc(O[C@H]3CCC[C@H](C(=O)O)C3)c(C)n2)nnn1C` (mixture of isomers) [Example 31, (1S,3S)-3-((2-methyl-6-(1-methyl-5-(((methyl(pentan-2-yl)carbamoyl)oxy)methyl)-1H-1,2,3-triazol-4-yl)pyridin-3-yl)oxy)cyclohexane-1-carboxylic acid], the negative-log IC50 (pIC50) was 7.44.
On the same count and under the same terms, the result for `CCCC(C)N(C)C(=O)OCc1c(-c2ccc(O[C@H]3CCC[C@H](C(=O)O)C3)c(C)c2)nnn1C` (mixture of isomers) [Example 39, (1S,3S)-3-(2-methyl-4-(1-methyl-5-(((methyl(pentan-2-yl)carbamoyl)oxy)methyl)-1H-1,2,3-triazol-4-yl)phenoxy)cyclohexane-1-carboxylic acid] reads 7.64; that for `CC(C1CC1)N(C)C(=O)OCc1c(-c2ccc(O[C@H]3CCC[C@H](C(=O)O)C3)c(F)c2)nnn1C` (mixture of isomers) [Example 45, (1S,3S)-3-(4-(5-((((1-cyclopropylethyl)(methyl)carbamoyl)oxy)methyl)-1-methyl-1H-1,2,3-triazol-4-yl)-2-fluorophenoxy)cyclohexane-1-carboxylic acid], 7.70; that for `CC(C1CCC1)N(C)C(=O)OCc1c(-c2ccc(O[C@H]3CCC[C@H](C(=O)O)C3)cc2)nnn1C` (mixture of isomers) [Example 54, (1S,3S)-3-(4-(5-((((1-cyclobutylethyl)(methyl)carbamoyl)oxy)methyl)-1-methyl-1H-1,2,3-triazol-4-yl)phenoxy)cyclohexane-1-carboxylic acid], 7.72.
As for `CCCC(C)N(C)C(=O)OCc1c(-c2ccc(O[C@H]3CCC[C@H](C(=O)O)C3)cc2)nnn1C` (mixture of isomers) [Example 57, trans-3-(4-(1-methyl-5-(((methyl(pentan-2-yl)carbamoyl)oxy)methyl)-1H-1,2,3-triazol-4-yl)phenoxy)cyclohexane-1-carboxylic acid], the pIC50 is 6.85.
Take `CC(C1CC1)N(C)C(=O)OCc1c(-c2ccc(O[C@H]3CCC[C@H](C(=O)O)C3)cc2)nnn1C` (mixture of isomers) [Example 65, trans-3-(4-(5-((((1-cyclopropylethyl)(methyl)carbamoyl)oxy)methyl)-1-methyl-1H-1,2,3-triazol-4-yl)phenoxy)cyclohexane-1-carboxylic acid]: the negative logarithm of the IC50 (pIC50) was 7.10.
`CCC(C)N(C)C(=O)OCc1c(-c2ccc(O[C@H]3CCC[C@H](C(=O)O)C3)cc2)nnn1C` (mixture of isomers) [Example 68, (trans)-3-(4-(5-(((sec-butyl(methyl)carbamoyl)oxy)methyl)-1-methyl-1H-1,2,3-triazol-4-yl)phenoxy)cyclohexane-1-carboxylic acid]: the pIC50 was 6.49.
Same read-out and setting: next, `CCC(C1CCC1)N(C)C(=O)OCc1c(-c2ccc(O[C@H]3CCC[C@H](C(=O)O)C3)c(C)n2)nnn1C` (mixture of isomers) [Example 99, (1S,3S)-3-((6-(5-((((1-cyclobutylpropyl)(methyl)carbamoyl)oxy)methyl)-1-methyl-1H-1,2,3-triazol-4-yl)-2-methylpyridin-3-yl)oxy)cyclohexane-1-carboxylic acid]: 6.84; `Cc1nc(-c2nnn(C)c2COC(=O)N2CCC(C)C2)ccc1O[C@H]1CCC[C@H](C(=O)O)C1` (mixture of isomers) [Example 147, (1S,3S)-3-((2-methyl-6-(1-methyl-5-(((3-methylpyrrolidine-1-carbonyl)oxy)methyl)-1H-1,2,3-triazol-4-yl)pyridin-3-yl)oxy)cyclohexane-1-carboxylic acid]: 6.60.
Consider `Cc1nc(-c2nnn(C)c2COC(=O)N2CCC(CC3CC3)C2)ccc1O[C@H]1CCC[C@H](C(=O)O)C1` (mixture of isomers) [Example 150, (1S,3S)-3-((6-(5-(((3-(cyclopropylmethyl)pyrrolidine-1-carbonyl)oxy)methyl)-1-methyl-1H-1,2,3-triazol-4-yl)-2-methylpyridin-3-yl)oxy)cyclohexane-1-carboxylic acid], for which the negative logarithm of the IC50 (pIC50) is 7.04.
Same read-out and setting: the result for `Cc1nc(-c2nnn(C)c2COC(=O)N2CCC(CC(C)C)C2)ccc1O[C@H]1CCC[C@H](C(=O)O)C1` (mixture of isomers) [Example 151, (1S,3S)-3-((6-(5-(((3-isobutylpyrrolidine-1-carbonyl)oxy)methyl)-1-methyl-1H-1,2,3-triazol-4-yl)-2-methylpyridin-3-yl)oxy)cyclohexane-1-carboxylic acid] reads 7.00; that for `CCC1CCCN1C(=O)OCc1c(-c2ccc(O[C@H]3CCC[C@H](C(=O)O)C3)c(C)n2)nnn1C` (mixture of isomers) [Example 152, (1S,3S)-3-((6-(5-(((2-ethylpyrrolidine-1-carbonyl)oxy)methyl)-1-methyl-1H-1,2,3-triazol-4-yl)-2-methylpyridin-3-yl)oxy)cyclohexane-1-carboxylic acid], 6.80.
Take `Cc1nc(-c2nnn(C)c2COC(=O)N2CCCC2CC(C)C)ccc1O[C@H]1CCC[C@H](C(=O)O)C1` (mixture of isomers) [Example 153, (1S,3S)-3-((6-(5-(((2-isobutylpyrrolidine-1-carbonyl)oxy)methyl)-1-methyl-1H-1,2,3-triazol-4-yl)-2-methylpyridin-3-yl)oxy)cyclohexane-1-carboxylic acid]: the pIC50 is 6.79.
Still for that read-out and setting: the result for `Cc1nc(-c2nnn(C)c2COC(=O)N2CCCC2C(F)(F)F)ccc1O[C@H]1CCC[C@H](C(=O)O)C1` (mixture of isomers) [Example 154, (1S,3S)-3-((2-methyl-6-(1-methyl-5-(((2-(trifluoromethyl)pyrrolidine-1-carbonyl)oxy)methyl)-1H-1,2,3-triazol-4-yl)pyridin-3-yl)oxy)cyclohexane-1-carboxylic acid] reads 6.49; that for `Cc1nc(-c2nnn(C)c2COC(=O)N2CCC2C)ccc1O[C@H]1CCC[C@H](C(=O)O)C1` (mixture of isomers) [Example 157, (1S,3S)-3-((2-methyl-6-(1-methyl-5-(((2-methylazetidine-1-carbonyl)oxy)methyl)-1H-1,2,3-triazol-4-yl)pyridine-3-yl)oxy)cyclohexane-1-carboxylic acid], 6.28.
